Reference: patent publication US8709747B2, “Biphotonic photosensitizers, nanoparticles containing the same and their use as drugs” (Centre National de la Recherche Scientifique, priority 2009, dated 2014)

Experiments:
[1] = Two-photon absorption cross section; type: physicochemical; conditions: for two-photon absorption cross section: at 720 nm; for λmax^TPA / σ2^max: table titled in ethanol
[2] = Quantum yield for singlet oxygen generation; type: physicochemical; conditions: in toluene
[3] = Photophysical properties (absorption, emission, fluorescence) in solution or dispersion; type: physicochemical; conditions: for Φ / εmax / λmax^abs / λmax^em / quantum yield for fluorescence: in ethanol; for quantum yield for fluorescence: orange emission; for Φf (fluorescence quantum yield): relative to quinine in 0.5 M H2SO4
[4] = spectral range of interest; Drobizhev et al.; cited from earlier work

SMILES: CCN(CCO)c1ccc(/C=C/c2ccc(C#Cc3ccc4c(c3)C(CCOCCOCCOC)(CCOCCOCCOC)c3cc(C#Cc5ccc(/C=C/c6ccc(N(CC)CCO)cc6)s5)ccc3-4)s2)cc1 [Photosensitizer 6b]
- two-photon absorption cross section [1]: 1530 GM
- λmax^TPA [1]: 730 nm
- σ2^max [1]: 1530 GM
- quantum yield for singulet oxygen generation [2]: 22%
- Φ [3]: 0.33
- εmax [3]: 0.98 10^5 M^−1cm^−1
- λmax^abs [3]: 434 nm
- λmax^em [3]: 575 nm
- quantum yield for fluorescence [3]: 65%

SMILES: CCCCC1(CCCC)c2cc(C#Cc3ccc(/C=C/c4ccc(N(CC)CCO)cc4)s3)ccc2-c2ccc(C#Cc3ccc(/C=C/c4ccc(N(CC)CCO)cc4)s3)cc21 [Photosensitizer 6a]
- two-photon absorption cross section [1]: 1340 GM
- λmax^TPA [1]: 730 nm
- σ2^max [1]: 1204 GM
- quantum yield for singulet oxygen generation [2]: 22%
- Stokes shift ([3]; AcOEt): 4605 cm⁻¹
- knr (non-radiative decay rate) ([3]; AcOEt): 0.34 10^9 s^−1
- kr (radiative decay rate) ([3]; AcOEt): 0.36 10^9 s^−1
- r (fluorescence anisotropy) ([3]; AcOEt): 0.12
- λabs ([3]; AcOEt): 435 nm
- λem ([3]; AcOEt): 544 nm
- τ ([3]; AcOEt): 1.42 ns
- τo (radiative lifetime) ([3]; AcOEt): 2.77 ns
- Φf (fluorescence quantum yield) ([3]; AcOEt): 0.51
- Stokes shift ([3]; Acetone): 5950 cm⁻¹
- knr (non-radiative decay rate) ([3]; Acetone): 0.89 10^9 s^−1
- kr (radiative decay rate) ([3]; Acetone): 0.25 10^9 s^−1
- r (fluorescence anisotropy) ([3]; Acetone): 0.13
- λabs ([3]; Acetone): 437.5 nm
- λem ([3]; Acetone): 591.5 nm
- τ ([3]; Acetone): 0.88 ns
- τo (radiative lifetime) ([3]; Acetone): 4.02 ns
- Φf (fluorescence quantum yield) ([3]; Acetone): 0.22
- Stokes shift ([3]; Bu2O): 2700 cm⁻¹
- knr (non-radiative decay rate) ([3]; Bu2O): 0.45 10^9 s^−1
- kr (radiative decay rate) ([3]; Bu2O): 0.56 10^9 s^−1
- r (fluorescence anisotropy) ([3]; Bu2O): 0.19
- λabs ([3]; Bu2O): 433.5 nm
- λem ([3]; Bu2O): 491 nm
- τ ([3]; Bu2O): 0.99 ns
- τo (radiative lifetime) ([3]; Bu2O): 1.79 ns
- Φf (fluorescence quantum yield) ([3]; Bu2O): 0.55
- Stokes shift ([3]; CH3CN): 6355 cm⁻¹
- knr (non-radiative decay rate) ([3]; CH3CN): 0.92 10^9 s^−1
- kr (radiative decay rate) ([3]; CH3CN): 0.05 10^9 s^−1
- r (fluorescence anisotropy) ([3]; CH3CN): 0.21
- λabs ([3]; CH3CN): 436.5 nm
- λem ([3]; CH3CN): 604 nm
- τ ([3]; CH3CN): 1.03 ns
- τo (radiative lifetime) ([3]; CH3CN): 19.99 ns
- Φf (fluorescence quantum yield) ([3]; CH3CN): 0.052
- Stokes shift ([3]; CHCl3): 4035 cm⁻¹
- knr (non-radiative decay rate) ([3]; CHCl3): 0.43 10^9 s^−1
- kr (radiative decay rate) ([3]; CHCl3): 0.39 10^9 s^−1
- r (fluorescence anisotropy) ([3]; CHCl3): 0.15
- λabs ([3]; CHCl3): 431.5 nm
- λem ([3]; CHCl3): 522.5 nm
- τ ([3]; CHCl3): 1.22 ns
- τo (radiative lifetime) ([3]; CHCl3): 2.54 ns
- Φf (fluorescence quantum yield) ([3]; CHCl3): 0.48
- Stokes shift ([3]; DCM): 4870 cm⁻¹
- knr (non-radiative decay rate) ([3]; DCM): 0.27 10^9 s^−1
- kr (radiative decay rate) ([3]; DCM): 0.42 10^9 s^−1
- r (fluorescence anisotropy) ([3]; DCM): 0.10
- λabs ([3]; DCM): 433.5 nm
- λem ([3]; DCM): 549.5 nm
- τ ([3]; DCM): 1.43 ns
- τo (radiative lifetime) ([3]; DCM): 2.35 ns
- Φf (fluorescence quantum yield) ([3]; DCM): 0.61
- Stokes shift ([3]; DMSO): 6090 cm⁻¹
- knr (non-radiative decay rate) ([3]; DMSO): 1.94 10^9 s^−1
- kr (radiative decay rate) ([3]; DMSO): 0.10 10^9 s^−1
- r (fluorescence anisotropy) ([3]; DMSO): 0.28
- λabs ([3]; DMSO): 448.5 nm
- λem ([3]; DMSO): 617 nm
- τ ([3]; DMSO): 0.49 ns
- τo (radiative lifetime) ([3]; DMSO): 9.7 ns
- Φf (fluorescence quantum yield) ([3]; DMSO): 0.051
- Stokes shift ([3]; THF): 4865 cm⁻¹
- knr (non-radiative decay rate) ([3]; THF): 0.32 10^9 s^−1
- kr (radiative decay rate) ([3]; THF): 0.34 10^9 s^−1
- r (fluorescence anisotropy) ([3]; THF): 0.12
- λabs ([3]; THF): 437 nm
- λem ([3]; THF): 555 nm
- τ ([3]; THF): 1.51 ns
- τo (radiative lifetime) ([3]; THF): 2.93 ns
- Φf (fluorescence quantum yield) ([3]; THF): 0.51
- Stokes shift ([3]; Toluene): 2650 cm⁻¹
- knr (non-radiative decay rate) ([3]; Toluene): 0.56 10^9 s^−1
- kr (radiative decay rate) ([3]; Toluene): 0.52 10^9 s^−1
- r (fluorescence anisotropy) ([3]; Toluene): 0.16
- λabs ([3]; Toluene): 436 nm
- λem ([3]; Toluene): 493 nm
- τ ([3]; Toluene): 0.93 ns
- τo (radiative lifetime) ([3]; Toluene): 1.94 ns
- Φf (fluorescence quantum yield) ([3]; Toluene): 0.48
- Φ [3]: 0.65
- εmax [3]: 1.04 10^5 M^−1cm^−1
- λmax^abs [3]: 432 nm
- λmax^em [3]: 561 nm
- quantum yield for fluorescence [3]: 65%

SMILES: C1=Cc2nc1c(-c1ccccc1)c1ccc([nH]1)c(-c1ccccc1)c1nc(c(-c3ccccc3)c3ccc([nH]3)c2-c2ccccc2)C=C1 [tetraphenylporphine]
- two-photon absorption (TPA) cross-section [4]: 15 GM
